Legend:
Type in all cases: cell-based
MCF-7 cells = assay: Inhibition of cell proliferation of MCF-7 cells (CCK-8, 9 days); conditions: treated for 9 days, CCK-8 kit (Table 6)
Method in brief: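 Read-out was CCK-8 viability after 9-day continuous exposure (37°C, 5% CO2) of MCF-7 cells plated at 800/well in 10% FBS DMEM across several compound concentrations. Values are proliferation IC50s.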

ERα [1] = target: T1, ERα (Homo sapiens, UniProt P03372); assay: Degradation of ERα in MCF-7 cells (immunoblotting, 4 h)
T1 sequence (P03372 1-595): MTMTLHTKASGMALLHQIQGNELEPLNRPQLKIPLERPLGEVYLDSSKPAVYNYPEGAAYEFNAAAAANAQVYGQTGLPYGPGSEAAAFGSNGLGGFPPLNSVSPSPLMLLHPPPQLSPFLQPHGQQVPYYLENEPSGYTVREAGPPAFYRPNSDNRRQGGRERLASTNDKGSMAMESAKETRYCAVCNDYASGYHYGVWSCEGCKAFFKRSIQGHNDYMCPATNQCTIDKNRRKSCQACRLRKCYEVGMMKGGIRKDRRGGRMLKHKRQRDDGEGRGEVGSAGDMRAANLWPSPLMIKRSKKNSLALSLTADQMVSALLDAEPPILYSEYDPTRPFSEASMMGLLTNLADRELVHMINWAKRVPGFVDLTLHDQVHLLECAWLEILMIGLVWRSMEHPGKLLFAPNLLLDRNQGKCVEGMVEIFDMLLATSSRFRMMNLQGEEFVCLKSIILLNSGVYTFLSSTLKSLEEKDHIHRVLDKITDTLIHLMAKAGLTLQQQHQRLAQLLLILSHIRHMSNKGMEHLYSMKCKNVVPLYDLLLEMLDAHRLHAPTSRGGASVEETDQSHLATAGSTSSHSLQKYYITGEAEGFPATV
Method in brief: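 Degradation rate reflects ERα band intensity, corrected to an internal reference protein, relative to control. Values come from Western blotting of lysates from MCF-7 cells exposed 4 h at 37°C to compounds at final concentrations of 0.15-1000nM.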

ERα [2] = target: T1, ERα; assay: Degradation of ERα in T-47D cells (immunoblotting, 4 h); set-up: host or cells: T-47D
Method in brief: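 ERα protein levels were assessed by immunoblot of RIPA lysates (with protease inhibitor) after 4 h exposure at 37°C. Compound was added in DMSO to T-47D cells at final concentrations of 0.15-1000 nM.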

Structure (SMILES)	IC50 (MCF-7 cells) [nM]	Degradation rate (%) of ERα in MCF-7 cells (ERα [1]; 1nM compound) [%]	Degradation rate (%) of ERα in MCF-7 cells (ERα [1]; 10nM compound) [%]	Degradation rate (%) of ERα in T-47D cells (ERα [2]; 1nM compound) [%]	Degradation rate (%) of ERα in T-47D cells (ERα [2]; 10nM compound) [%]
O=C1CCC(N2Cc3c(ccc4c3OCC43CCN(C(=O)[C@H]4CC[C@H](OC5CCN(c6ccc([C@@H]7c8ccc(O)cc8CC[C@@H]7c7ccccc7)cc6)CC5)CC4)CC3)C2=O)C(=O)N1 (some centres unmarked) [D8]	11400	9	62	33	75
C[C@@H]1Cc2c([nH]c3ccccc23)[C@@H](c2c(F)cc(N3CCC(C(=O)N4CCC(N5CCC6(CC5)COc5c6ccc6c5CN(C5CCC(=O)NC5=O)C6=O)[C@H](F)C4)CC3)cc2F)N1CC(F)F (some centres unmarked) [D9]	10.8	22	55	52	82
C[C@@H]1Cc2c([nH]c3ccccc23)[C@@H](c2c(F)cc(N3CCC4(CC3)CC(N3CC[C@@H](N5CCC6(CC5)COc5c6ccc6c5CN(C5CCC(=O)NC5=O)C6=O)[C@@H](F)C3)C4)cc2F)N1CC(F)F (some centres unmarked) [D10]	12.5	3	58	24	77
C[C@@H]1Cc2c([nH]c3ccccc23)[C@@H](c2c(F)cc(N3CCC(N4CC[C@@H](N5CCC6(CC5)COc5c6ccc6c5CN(C5CCC(=O)NC5=O)C6=O)[C@@H](F)C4)CC3)cc2F)N1CC(F)F (some centres unmarked) [D11]	19.2	6	66	52	82
CN(C[C@H]1CC[C@H](C(=O)N2CCC3(CC2)COc2c3ccc3c2CN(C2CCC(=O)NC2=O)C3=O)CC1)[C@H]1CCN(c2ccc([C@@H]3c4ccc(O)cc4CC[C@@H]3c3ccccc3)cc2)C[C@H]1F (some centres unmarked) [D13]	186	42	68	54	82
O=C1CCC(N2Cc3c(ccc4c3OCC43CCN(C(=O)C4CCN(CC5(F)CCN(c6ccc([C@@H]7c8ccc(O)cc8CC[C@@H]7c7ccccc7)cc6)CC5)CC4)CC3)C2=O)C(=O)N1 (some centres unmarked) [E1]	12.6	39	75	57	82
C[C@@H]1Cc2cc(O)ccc2C(c2c(F)cc(N3CCC4(CCN(CC(=O)N5CCC6(CC5)COc5c6ccc6c5CN(C5CCC(=O)NC5=O)C6=O)CC4)CC3)cc2F)N1CC(F)F (some centres unmarked) [F4]	0.103	64	63	62	79
C[C@@H]1Cc2cc(O)ccc2C(c2c(F)cc(N3CCC4(CCN(CC(=O)N5CCC6(CC5)COc5c6ccc6c5CN(C5CCC(=O)NC5=O)C6=O)C4)CC3)cc2F)N1CC(F)F (some centres unmarked) [F8]	203	63	63	61	68
C[C@@H]1Cc2cc(O)ccc2C(c2c(F)cc(N3CCC(N4CCC(C(=O)N5CCC6(CC5)COc5c6ccc6c5CN(C5CCC(=O)NC5=O)C6=O)CC4)CC3)cc2F)N1CC(F)F (some centres unmarked) [F9]	4360	46	45	42	38
C[C@@H]1Cc2cc(O)ccc2C(c2c(F)cc(N3CCC(C(=O)N4CCC(N5CCC6(CC5)COc5c6ccc6c5CN(C5CCC(=O)NC5=O)C6=O)[C@H](F)C4)CC3)cc2F)N1CC(F)F (some centres unmarked) [F10]	3.81	53	43	59	65

Reference: patent EP4656642A1, “ESTROGEN RECEPTOR PROTEOLYSIS TARGETING CHIMERA COMPOUND AND USE THEREOF” (GAN & LEE PHARM CO., LTD, priority 2023, dated 2024)
